US4572911A, “Hexahydroindolinzine compounds, pharmaceutical compositions and methods and intermediates” (priority 1984, dated 1986)
Structures can show the parent of a compound that is named as a salt. Where two headings read alike, the source gives them in different places.

How the values were obtained:
[1] = test system: gastric acid secretion; assay: Acute Gastric Fistula Rat Test (inhibition of gastric acid secretion, Total Acid Output); assay type: in vivo, Female Sprague-Dawley rats; details: 1 h, @ 20 mg/kg i.d. (intraduodenal), collection at one hour, read-out: % Inhibition of TAO (Total Acid Output)
Description: The compounds of the invention are useful for inhibition of gastric acid secretion as measured by the following test. Female Sprague-Dawley rats are fasted twenty-four hours before testing and are given water ad libidum while being kept in individual cages. On the day of testing, the rats are weighed and are selected so that the rats in each test weigh within a range of ±20 grams.
Surgery is carried out under light ether anesthesia. As soon as the rat is anesthetized its teeth are removed and a mid-line incision is made on the abdomen about 11/2 inches in length and the stomach and duodenum are exposed. If at this point the stomach is filled with food or fecal material, the rat is not used. If the condition of the stomach is acceptable, a purse string stitch is placed on the fundic portion of the stomach with a suture, taking care not to pierce any blood vessels in the area. A small nick is then made into the stomach in the center of the purse string, and a cannula, consisting of a small vinyl tube with a flange on one end, is put into the stomach, and the purse string stitch is closed tightly around the flange. The test compound is administered intraduodonally (i.d.) immediately after surgery in a volume of 0.5 ml/100 grams rat. Control rats receive the test vehicle, 0.5% aqueous methyl cellulose.
After the surgery and after administration of the test compound, the abdominal wall and skin are closed simultaneously with three or four 10 mm wound clips and a collecting tube is placed on the cannula. Each rat is then placed in a box in which a longitudinal slit has been made to allow the cannula to hang freely and to allow the rat to move about unencumbered. After the rat has been allowed to stabilize for thirty minutes, the collection tube on the cannula is discarded and replaced with a clean tube to receive the gastric juice. Collections are made at one hour.
The sample of gastric contents collected is drained into a centrifuge tube and centrifuged to pack down the sediment. The volume is read and a 1 ml aliquot of the supernatant is put into a beaker containing 10 ml distilled water and is titrated to pH 7 using 0.01 N sodium hydroxide. Results are determined for Volume, Titratable Acid and Total Acid Output, where Volume equals total ml of gastric juice minus sediment; Titratable Acid (meq/1) equals amount of 0.01 N sodium hydroxide needed to titrate the acid to pH 7; and Total Acid Output equals Titratable Acid times Volume. Results are reported as % inhibition of Total Acid Output (TAO) for a dose of 20 mg/kg i.d. of the compound of formula (I) or (II). Particularly useful are compounds having significant inhibition of TAO at a dose of 20 mg/kg.

[2] = test system: depressant effects of tetrabenazine (TBZ); assay: tetrabenazine (TBZ) antagonism assay for antidepressant agents; assay type: in vivo; details: Mus musculus, ip, 0.5 h, mice, test compound i.p. 30 minutes prior to 32 mg/kg i.p. TBZ
Description: This is the "classical" tetrabenazine antagonism assay described in U.S. Pat. No. 3,787,577. Mice are injected with a test compound 30 minutes prior to the injection of 32 mg/kg i.p. of TBZ, a drug which decreases normal exploratory activity and induces ptosis. After 30 minutes, the mice are tested for two parameters: the presence of normal exploratory activity (EA) and reversal of ptosis (Pt). A control group of mice is given only 32 mg/kg i.p. of TBZ.

[3] = normal exploratory activity, read-out: TBZ ED50 EA (exploratory activity)
[4] = reversal of ptosis, read-out: TBZ ED50 Pt (reversal of ptosis)

SMILES	inhibition in vivo at 20 mg/kg [1]	ED50 [2, 3]	ED50 [2, 4]
CC12CCCN1CCc1[nH]ccc12 (stereo not shown) [Example 5, 4,5,7,8,9,9a-Hexahydro-9a-methyl-3H-pyrrolo[2,3-g]-indolizine E-(2-)butenedioate(1:1)]	66%		
Cn1ccc2c1[C@H](c1ccccc1)CN1CCC[C@H]21 (relative stereo) [17 (2nd), 4,5,7,8,9,9a-beta-Hexahydro-3-methyl-4-alpha-phenyl-3H-pyrrolo[2,3-g]indolizine]	88%	2.4 mg/kg	~0.75 mg/kg
c1ccc([C@@H]2CN3CCC[C@H]3c3sccc32)cc1 (relative stereo) [19 (3rd), 4,5,7,8,9,9a-alpha-hexahydro-4-alpha-phenylthieno[3,2-g]indolizine]	88%		
c1csc([C@@H]2CN3CCC[C@H]3c3ccsc32)c1 (relative stereo) [20 (1st), 4,5,7,8,9,9a-alpha-Hexahydro-4-alpha-(2-thienyl)thieno[2,3-g]indolizine]	47%		
c1csc([C@@H]2CN3CCC[C@@H]3c3ccsc32)c1 (relative stereo) [20 (2nd), 4,5,7,8,9,9a-beta-hexahydro-4-alpha-(2-thienyl)thieno[2,3-g]indolizine]	41%	~24 mg/kg	~30 mg/kg
Cn1ccc2c1CCN1C(c3ccc(Cl)cc3)CCC21C (stereo not shown) [Example 12, 7-(4-Chlorophenyl)-4,5,7,8,9,9a-hexahydro-3,9a-dimethyl-3H-pyrrolo[2,3-g]indolizine (E)-2-butenedioate (1:7) hydrate (1:2)]	37%		
C[C@@]12CCCN1C[C@@H](c1ccccc1)c1sccc12 (relative stereo) [Example 18, 4,5,7,8,9,9a-Hexahydro-9a-alpha-methyl-4-alpha-phenylthieno-[2,3-g]indolizine perchlorate (1:1)]	100%		
Cn1ccc2c1[C@H](c1ccccc1)CN1CCC[C@@H]21 (relative stereo) [17 (1st), 4,5,7,8,9,9a-alpha-Hexahydro-3-methyl-4-alpha-phenyl-3H-pyrrolo[2,3-g]indolizine]	90%		
CC12CCCN1CCc1c2ccn1-c1ccccc1 (stereo not shown) [Example 10, 4,5,7,8,9,9a-Hexahydro-9a-methyl-3-phenyl-3H-pyrrolo[2,3-g]indolizine]	82%		
Cn1ccc2c1C1(C)CCCN1CC2 (stereo not shown) [Example 16, 1,9a-Dimethyl-4,5,7,8,9,9a-hexahydro-1H-pyrrolo[3,2-g]indolizine cyclohexanesulfamate]	86%		
c1ccc([C@@H]2CN3CCC[C@@H]3c3ccsc32)cc1 (relative stereo) [19 (2nd), 4,5,7,8,9,9a-beta-hexahydro-4-alpha-phenylthieno[2,3-g]indolizine]	98%		
CC12CCCN1CCc1c2ccn1Cc1ccccc1Cl (stereo not shown) [Example 4, 3-(2-Chlorobenzyl)-4,5,7,8,9,9a-hexahydro-9a-methyl-3H-pyrrolo[2,3-g]indolizine]	78%		
Cn1ccc2c1CCN1CCCC21c1ccccc1 (stereo not shown) [Example 7, 4,5,7,8,9,9a-Hexahydro-3-methyl-9a-phenyl-3H-pyrrolo[2,3-g]indolizine]	86%		
c1ccc([C@@H]2CN3CCC[C@H]3c3ccsc32)cc1 (relative stereo) [19 (1st), 4,5,7,8,9,9a-alpha-Hexahydro-4-alpha-phenylthieno[2,3-g]indolizine]	98%		
Cn1ccc2c1CCN1CCCC21C (stereo not shown) [Example 13, 3,9a-Dimethyl-4,5,7,8,9,9a-hexahydro-3H-pyrrolo[2,3-]indolizine hydrochloride]	74%		
